Test results as given in ChEMBL document CHEMBL3638931, “Histone deacetylase inhibitors, process for preparation and uses thereof” (2014).

Biological target: T1, Protein deacetylase HDAC6 (Homo sapiens, UniProt Q9UBN7)
T1 sequence (Q9UBN7 whole entry): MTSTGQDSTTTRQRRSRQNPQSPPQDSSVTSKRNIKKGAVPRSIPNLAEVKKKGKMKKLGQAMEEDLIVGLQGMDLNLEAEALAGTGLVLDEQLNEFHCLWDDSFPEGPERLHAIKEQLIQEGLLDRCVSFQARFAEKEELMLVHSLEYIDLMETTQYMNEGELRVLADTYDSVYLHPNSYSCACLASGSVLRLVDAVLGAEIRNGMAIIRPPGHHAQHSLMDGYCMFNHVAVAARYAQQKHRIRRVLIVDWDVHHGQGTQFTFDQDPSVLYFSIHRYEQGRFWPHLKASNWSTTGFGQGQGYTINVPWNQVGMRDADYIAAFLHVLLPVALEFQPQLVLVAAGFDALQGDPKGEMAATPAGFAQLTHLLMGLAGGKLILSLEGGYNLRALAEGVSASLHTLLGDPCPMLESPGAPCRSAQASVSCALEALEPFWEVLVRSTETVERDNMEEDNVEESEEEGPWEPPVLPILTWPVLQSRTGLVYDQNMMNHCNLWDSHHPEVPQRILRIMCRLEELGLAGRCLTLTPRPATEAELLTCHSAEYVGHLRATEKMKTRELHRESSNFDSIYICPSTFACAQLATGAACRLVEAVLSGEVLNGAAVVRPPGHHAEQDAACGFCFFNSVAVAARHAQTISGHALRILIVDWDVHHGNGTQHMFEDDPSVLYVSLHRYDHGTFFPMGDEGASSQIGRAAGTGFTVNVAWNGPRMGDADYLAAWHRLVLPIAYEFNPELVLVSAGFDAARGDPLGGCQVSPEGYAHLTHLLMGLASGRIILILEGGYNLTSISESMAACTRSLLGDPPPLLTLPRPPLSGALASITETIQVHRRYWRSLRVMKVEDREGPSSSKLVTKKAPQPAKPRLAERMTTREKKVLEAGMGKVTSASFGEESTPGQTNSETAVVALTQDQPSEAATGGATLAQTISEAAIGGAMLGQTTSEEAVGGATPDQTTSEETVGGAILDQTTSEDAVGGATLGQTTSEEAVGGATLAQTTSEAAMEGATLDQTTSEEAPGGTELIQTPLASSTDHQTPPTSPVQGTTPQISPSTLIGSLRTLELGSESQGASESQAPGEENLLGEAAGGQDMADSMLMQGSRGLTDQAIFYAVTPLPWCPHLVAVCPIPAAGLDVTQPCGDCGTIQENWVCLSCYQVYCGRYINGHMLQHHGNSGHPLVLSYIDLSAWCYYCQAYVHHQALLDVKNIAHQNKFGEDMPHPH
Assay: BIOMOL Fluorescent-Based HDAC Assay: The BIOMOL fluorescent-based HDAC activity assay has been applied in In vitro HDACi assay for determination of IC50 values of the compounds of this invention. The assay has been carried out in white 96 well formats according to the BIOMOL's method. In order to optimize the experiment conditions and optinal, the exact concentration range of the Deacetylated Standard (biomol, KI-142) that will vary depending on the flurimeter model, the gain setting and the exact excitation and emission wavelengths used. We recommend diluting some of the standard to a relatively low concentration with Assay Buffer (an appropriate series of Deacetylated Standard dilutions from 20 uM to 0.3125 uM), and Assay Buffer as a time zero to a set of wells on the microtiter plate. Experimental to samples (five dilute groups: 100 uM, 20 uM, 4 uM, 0.8 uM, 0.16 uM) should be compared to a time zero.

Row | IC50 | Structure (SMILES)
1 | 0.247 µM | CCN(CC)CCSc1ccc(/C=C/C(=O)NO)cc1NS(=O)(=O)c1ccc(C)cc1
2 | 0.313 µM | CCN(CC)CCSc1ccc(/C=C/C(=O)NO)cc1NC(=O)C(Cl)Cl
